The values below come from PMC6100386, “Preparation of Novel Homodimers Derived from Cytotoxic Isoquinolinequinones. A Twin Drug Approach” (Molecules : A Journal of Synthetic Chemistry and Natural …, 2018).

Read-outs that look alike come from different tables or passages of the source. Some results are limits rather than exact numbers.

Data set [1] has as its system MDA-MB-231 and B16-F10 tumor cells (versus MEF fibroblasts). As to the kind of experiment: Cell growth inhibition assay, mean over the two tumor cell lines and selectivity versus fibroblasts. Type of data set: cell-based. The settings on record: for SI (mean selectivity index): IC50 values for fibroblast cells / IC50 values for tumor cells (mean IC50); for IC50: mean of the IC50 values of the two tumor cell lines MDA-MB 231 and B16-F10, 72 h. On the procedure:
(§1) The prepared homodimers 11–15 were evaluated for their in vitro cytotoxic activity using a conventional fluorescence assay (Cyquant direct cell proliferation assays), against primary mouse embryo fibroblast cell line MEF and two cancer cells lines: […] human breast adenocarcinoma and B16-F10 murine metastatic melanoma cells, in 72 h drug exposure assays. Monoamination products 6–10 were included in these preliminary assays. […] Etoposide and taxol, used clinically as anticancer agents, were taken as positive controls.
(§2) The cell lines used in this work included MDA-MB-231 human breast adenocarcinoma cells, B16-F10 mouse melanoma cells and MEF primary mouse embryonic fibroblasts. Cells were grown in DMEM high glucose medium (Mediatech, Manassas, VA, USA) supplemented with 10% (MDA-MB-231, and B16-F10) or 15% (MEF) heat-inactivated fetal bovine serum (HyClone laboratories, South Logan, UT, USA), 100 IU/mL penicillin and 100 μg/mL streptomycin, kept at 37 °C in a 5% CO2 humidified atmosphere. For the experiments, a total of 5.000 cells/well were seeded on a flat-bottomed 96-well plate with 200 μL final volume. Six hours after seeding, the cells were incubated with the medium containing the compounds at concentrations ranging from 0 up to 100 μM dissolved in DMSO (0.1% final concentration) for 72 h. The concentrations used to calculate the IC50 values were 100.0, 30.0, 10.0, 3.0, 1.0, 0.3, 0.1, 0.01 and 0.0 μM. Untreated cells (medium containing 0.1% DMSO) were used as controls. At the end of the incubation, cell viability was measured using CyQuant® direct cell proliferation assay kits (Life Technologies, Carlsbad, CA, USA) in accordance with the manufacturer’s instructions. Briefly, 100 μL of culture medium containing the compounds under evaluation was removed from each well and replaced by 2X detection reagent. The cells were incubated for 1 h and fluorescence emission was measured at 535 nm with excitation at 480 nm in a microplate reader (Infinite 200 PRO, Tecan, Männedorf, Switzerland). At least four independent experiments were performed for each concentration. Each result was transformed to percentage of controls and the IC50 values were obtained graphically from the dose–response curves. The IC50 value was obtained by adjusting the dose–response curve to a sigmoidal curve (variable slope) generated using GraphPad Prisma 6.0 software (La Jolla, CA, USA).

Data set [2] has as its system MEF primary mouse embryonic fibroblasts. As to the kind of experiment: Cell growth inhibition assay (CyQuant direct cell proliferation), normal fibroblasts. Type of data set: cell-based. The settings on record: normal mouse embryo fibroblast cell line; 72 h drug exposure; average of six independent determinations; read-out: IC50 ± SEM, MEF. As to the method:
as §1, §2

The subject of data set [3] is B16-F10 mouse melanoma cells. Description: Cell growth inhibition assay (CyQuant direct cell proliferation), melanoma. Type of data set: cell-based. To be noted: murine metastatic melanoma cell line, 72 h drug exposure, average of six independent determinations, read-out: IC50 ± SEM, B16-F10. On the procedure:
as §1, §2

Data set [4] relates to MDA-MB-231 human breast adenocarcinoma cells. As to the kind of experiment: Cell growth inhibition assay (CyQuant direct cell proliferation), breast adenocarcinoma. Type of data set: cell-based. To be noted: human breast adenocarcinoma cell line, 72 h drug exposure, average of six independent determinations, read-out: IC50 ± SEM, MDA-MB 231. On the procedure: as §1, §2

`CC(=O)c1c(C)ncc2c1C(=O)C=C(Nc1ccc(Cc3ccc(N)cc3)cc1)C2=O` [Compound 9]: the “SI (mean selectivity index)” value in data set [1] is reported as 2.36. Moreover, the IC50 in data set [1] was 1.18 µM; in data set [2], 2.79 ± 0.44 µM; in data set [3], 0.76 ± 0.21 µM; in data set [4], 1.59 ± 0.37 µM.

On to `CC(=O)O[C@H]1C(=O)[C@@]2(C)[C@H]([C@H](OC(=O)c3ccccc3)[C@]3(O)C[C@H](OC(=O)[C@H](O)[C@@H](NC(=O)c4ccccc4)c4ccccc4)C(C)=C1C3(C)C)[C@]1(OC(C)=O)CO[C@@H]1C[C@@H]2O` [Taxol, reference compound], for which the IC50 was 0.35 µM in data set [1] (Fibroblast); 0.32 ± 0.05 µM in data set [2]; 0.38 ± 0.06 µM in data set [3] (Mus musculus, B16-F10); 0.32 ± 0.07 µM in data set [4] (MDA-MB-231). For the same compound, the “SI (mean selectivity index)” value in data set [1] came out at 0.91.

For the compound `CC(=O)c1c(C)nc(C)c2c1C(=O)C=C(Nc1ccc(Cc3ccc(NC4=CC(=O)c5c(C(C)=O)c(C)nc(C)c5C4=O)cc3)cc1)C2=O` [Compound 12, 7,7′-(4,4′-Methylenebis(4,1-phenylene)bis(azanediyl))bis(4-acetyl-1,3-dimethylisoquinoline-5,8-dione)], the “SI (mean selectivity index)” value in data set [1] worked out at 1.37. Also, the IC50 worked out at 52.1 µM in data set [1], 71.6 ± 6.39 µM in data set [2], 48.6 ± 4.42 µM in data set [3] and 55.6 ± 5.95 µM in data set [4].

`COC(=O)c1c(C)ncc2c1C(=O)C=C(Nc1ccc(Cc3ccc(NC4=CC(=O)c5cnc(C)c(C(=O)OC)c5C4=O)cc3)cc1)C2=O` [Compound 15, Methyl-7-(4-(4-(4-(methoxycarbonyl)-3-methyl-5,8-dioxo-5,8-dihydroisoquinolin-6-ylamino)benzyl)phenylamino)-3-methyl-5,8-dioxo-5,8-dihydroisoquinoline-4-carboxylate]: the melting point fell in the range of 191 to 192 °C. This compound also displayed an IC50 in data set [1] (Fibroblast) of 0.37 µM. The “SI (mean selectivity index)” value in data set [1] was 6.97. Besides, the half-maximal inhibitory concentration (IC50) in data set [2] came to 2.58 ± 0.33 µM. Also, in data set [3] (Mus musculus, B16-F10), the IC50 is 0.45 ± 0.08 µM. The half-maximal inhibitory concentration (IC50) in data set [4] (MDA-MB-231) came out at 0.29 ± 0.05 µM.

For the compound `COC(=O)c1c(C)nc(C)c2c1C(=O)C=C(Nc1ccc(Cc3ccc(N)cc3)cc1)C2=O` [Compound 6], the melting point lay within 149 to 150 °C. In data set [1] (Fibroblast), this compound showed an IC50 of 4.31 µM. The “SI (mean selectivity index)” value in data set [1] was found to be 2.06. In addition, the IC50 in data set [2] is 8.87 ± 0.88 µM. The half-inhibitory concentration (IC50) in data set [3] (Mus musculus, B16-F10) came to 6.16 ± 0.88 µM. Also, the IC50 in data set [4] (MDA-MB-231) came to 2.46 ± 0.39 µM.

`COC(=O)c1c(C)nc(C)c2c1C(=O)C=C(Nc1ccc(Cc3ccc(NC4=CC(=O)c5c(C(=O)OC)c(C)nc(C)c5C4=O)cc3)cc1)C2=O` [Compound 11] gave a melting point of 199 to 200 °C. Further, the “SI (mean selectivity index)” value in data set [1] came to 0.30. In data set [2], the half-inhibitory concentration (IC50) was over 100 µM. In addition, the half-inhibitory concentration (IC50) in data set [3] (Mus musculus, B16-F10) is over 100 µM. Also, the IC50 in data set [4] (MDA-MB-231) is 66.9 ± 6.13 µM.

`COC(=O)c1c(C)ncc2c1C(=O)C=C(Nc1ccc(Cc3ccc(NC4=CC(=O)c5c(cnc(C)c5C(=O)OC)C4=O)cc3)cc1)C2=O` [Compound 13, Dimethyl-7,7′-(4,4′-methylenebis(4,1-phenylene)bis(azanediyl))bis(3-methyl-5,8-dioxo-5,8-dihydroisoquinoline-4-carboxylate)]: the IC50 in data set [1] (Fibroblast) is 45.6 µM; in data set [2] it was 79.8 ± 9.27 µM; in data set [3] (Mus musculus, B16-F10), 66.3 ± 5.61 µM; in data set [4] (MDA-MB-231), 24.8 ± 4.78 µM. Besides, the “SI (mean selectivity index)” value in data set [1] was 1.75.

With `COC(=O)c1c(C)ncc2c1C(=O)C=C(Nc1ccc(Cc3ccc(N)cc3)cc1)C2=O` [Compound 8], the melting point lay within 83 to 84 °C. Also, half-maximal inhibition in data set [1] (Fibroblast) (IC50) was put at 2.38 µM. Also, in data set [1], the “SI (mean selectivity index)” value was 2.33. Also, the IC50 in data set [2] amounted to 5.54 ± 0.82 µM. Also, the IC50 in data set [3] (Mus musculus, B16-F10) came out at 3.31 ± 0.47 µM. In addition, the IC50 in data set [4] (MDA-MB-231) was found to be 1.45 ± 0.31 µM.

As for `CC(=O)c1c(C)ncc2c1C(=O)C=C(Nc1ccc(Cc3ccc(NC4=CC(=O)c5c(cnc(C)c5C(C)=O)C4=O)cc3)cc1)C2=O` [Compound 14, 7,7′-(4,4′-Methylenebis(4,1-phenylene)bis(azanediyl))bis(4-acetyl-3-methylisoquinoline-5,8-dione)], in data set [1], the “SI (mean selectivity index)” value is 4.74. For the same compound, the IC50 in data set [1] came to 6.91 µM; in data set [2] it was 32.8 ± 3.38 µM; in data set [3], 5.83 ± 0.73 µM; in data set [4], 7.98 ± 1.43 µM.

Take `CC(=O)c1c(C)nc(C)c2c1C(=O)C=C(Nc1ccc(Cc3ccc(N)cc3)cc1)C2=O` [Compound 7]: in data set [1], the “SI (mean selectivity index)” value is reported as 1.15. Also, the IC50 in data set [1] turned out to be 13.3 µM; in data set [2], 15.4 ± 1.97 µM; in data set [3] it was 7.14 ± 0.95 µM; in data set [4], 19.5 ± 1.46 µM.

Consider `COc1cc([C@@H]2c3cc4c(cc3[C@@H](O[C@@H]3O[C@@H]5CO[C@@H](C)O[C@H]5[C@H](O)[C@H]3O)[C@H]3COC(=O)[C@H]23)OCO4)cc(OC)c1O` [Etoposide, reference compound], for which the IC50 in data set [1] (Fibroblast) was found to be 3.67 µM; in data set [2], 1.18 ± 0.4 µM; in data set [3] (Mus musculus, B16-F10), 2 ± 0.44 µM; in data set [4] (MDA-MB-231) it was 5.34 ± 0.12 µM. In addition, the “SI (mean selectivity index)” value in data set [1] worked out at 0.32.

Take “4-Acetyl-6-((4-(4-aminobenzyl)phenyl)amino)-3-methylisoquinoline-5,8-dione [Compound 10]”: the “SI (mean selectivity index)” value in data set [1] came to 2.09. The IC50 in data set [1] turned out to be 2.46 µM; in data set [2] it was 5.14 ± 0.69 µM; in data set [3], 2.17 ± 0.37 µM; in data set [4] it was 2.75 ± 0.42 µM.

For orientation: IC50 means the concentration that inhibits the measured activity by half. The melting point is the temperature of the solid-liquid transition.
